Consider six compounds from patent publication US7687546B2, “Quaternary ammonium compound, process for producing the same, therapeutic agent for cerebrovascular disorder, and therapeutic agent for heart disease” (Activus Pharma Co., Ltd., priority 2004, dated 2010).

Like-named read-outs stand apart in the source and are kept apart here.

Series [1] deals with middle cerebral artery occlusion and reperfusion model. Description: Cerebral infarction model: middle cerebral artery occlusion and reperfusion (infarct area, neurological symptoms, motor function). The series is classed as in vivo, rats (Crj: Wistar strain). Set-up: Improvement of neurological symptoms* (total score): scale not given here. The conditions noted are these: rats, average of 10 animals; for Improvement of neurological symptoms* (total score) / Improvement of motor function (time stayed on rotor rod: seconds): single i.v. dose 3 mg/kg; for Improvement of neurological symptoms* (total score): 24 hours after occlusion, total score per Table 4, smaller = greater effect; for Improvement of motor function (time stayed on rotor rod: seconds): rotor rod 14 rotations per minute, maximum 1 minute; for Cerebral infarction reduction rate (%): single intravenous dose 3 mg/kg immediately before reperfusion, vs physiological saline group, bigger = greater effect. The procedure:
In this example, a cerebral infarction model was prepared using rats in which reperfusion injury was induced by ischemia and then reperfusion of the middle cerebral artery using the obturator method. The efficacy of compounds of the present invention following single-dose intravenous administration at dose of 3 mg/kg was evaluated in terms of infarct area, neurological symptoms and motor function.
In addition, Edaravone (trade name, Mitsubishi Pharma Corporation) was used as a reference compound. The compounds of the present invention were stored in a refrigerator under protection from light, while Edaravone (trade name) was stored at room temperature under protection from light.
Compounds of present invention: 2 mL of physiological saline was added directly to tube containing 3 mg aliquots of a compound of the present invention to dissolve and prepare solutions having a concentration of 3 mg/2 mL. These samples were prepared at the time of use.
Edaravone: Since Edaravone is an injectable solution having a concentration of 30 mg/20 mL, the required amounts were divided up and used.
Rats: Crj: Wistar strain, males, age 7 weeks (Charles River Laboratories Japan, Inc.)
The test compounds were administered in a single dose into the tail vein using a 1 mL syringe and 27 G injection needle immediately before the reperfusion.
The rats were anesthetized by intraperitoneal administration of sodium pentobarbital at dose of 40 mg/kg (Nembutal (trade name), Dainippon Pharmaceutical Co., Ltd.), and a middle cerebral artery occlusion and reperfusion model was prepared in accordance with the method of Koizumi et al. (Non-Patent Document 2). Namely, the animals were warmed to 37° C. and held in the dorsal position while breathing spontaneously. A midline cervical incision was made, and then the right external carotid artery and right internal carotid artery were separated without damaging the vagus nerve. The right common carotid artery and right external carotid artery were ligated, and a suture was attached to the origin of the internal carotid artery in preparation for ligation and maintenance of occlusion following insertion of an obturator into the internal carotid artery. Moreover, a small incision was made in the right common carotid artery, an obturator provided with an approximately 17 mm silicon-coated suture was inserted into the internal carotid artery, and the internal carotid artery was ligated. Two hours after ligation, the obturator was removed under unanesthesia to reperfuse. Furthermore, flexion of the contralateral forelimb was confirmed 30 minutes after occlusion of the middle cerebral artery.
The following neurological symptoms were evaluated 24 hours after occlusion of the middle cerebral artery according to the evaluation method of Petullo et al. (Non-Patent Document 3). Neurological symptoms consisted of flexion of the forelimbs, torso twisting, resistance when pushing on the back of the right or left shoulder (Lateral push), circling, return of the hindlimb to the floor when lifted from the floor (Hindlimb placement), behavior when the head is faced downward on an angle (Inverted angle board) and a locomotor activity test.
Flexion of the forelimbs: flexion of the forelimbs was observed when the animals were lifted up by the tail.
Torso twisting: Torso twisting was observed when the animals were lifted up by the tail.
Lateral push: Resistance was observed when pushing on the back of the right or left shoulder.
Hindlimb placement: The animals were observed as to whether or not the hindlimb immediately returns to the floor after being lifted from the floor when placed on a horizontal floor.
locomotor activity: locomotor activity was observed when the animals were placed in a polycarbonate cage.
The aforementioned tests were scored based on the criteria described in the following documents, followed by calculation of total scores (see Table 4 “Neurological Symptom Evaluation Criteria and Scores”). […]

The subject of series [2] is ouabain-induced arrhythmia model. Kind of series: Ouabain-induced arrhythmia model in guinea pigs. The series is classed as in vivo, guinea pigs (Hartley strain). As to conditions: dose 3 mg/kg i.v. immediately before ouabain infusion 3 μg/0.1 ml/min. The text has this:
After guinea pigs (Hartley strain, age 6 weeks) were anesthetized with urethane, induction electrodes were attached to the hind limbs and fore limbs, and standard 2-lead electrocardiograms were monitored with an animal electrocardiogram analysis system (ECG-01, Japan Energy). After confirming that the waveforms of the electrocardiogram and heart rate were within the normal range, an incision was made in the epidermis of the neck followed by inserting a breathing tube into the trachea and cannulating a polyethylene tube into the left external jugular vein and left common carotid artery.
Immediately after administering a compound of the present invention dissolved in a physiological saline solution into the right external jugular vein, ouabain was continuously infused at 3 μg/0.1 ml/min through the cannulated polyethylene tube into the left external jugular vein using a syringe pump (Atom Syringe Pump 1235 (trade name), Atom Medical Corporation).
In addition, the polyethylene tube cannulated in the left common carotid artery was connected to a pressure transducer (P23XL, Gould Electronics), and fed to a pressure processor signal conditioner (TA-11, Gould Electronics) to record blood pressure and heart rate on a thermal plate recorder.
The results were assessed by comparing the dose (μg/kg) of ouabain administered until the appearance of arrhythmia and occurrence of cardiac arrest (arrhythmia is not induced even if a large dose of ouabain is administered if antiarrhythmic effects are high). Furthermore, a solvent dose group (administered only physiological saline in an amount equal to that of the test drug groups), and a positive control group administered a typical antiarrhythmic disopyramide phosphate (physiological saline solution), were also provided.

In series [3] the test system is model of myocardial ischemia-reperfusion injury. Kind of series: Model of myocardial ischemia-reperfusion injury in rats. As to conditions: 3 mg/kg i.v. 5 minutes before 5 minutes coronary ligation, 8 rats per group; for Incidence of Ventricular Fibrillation (%) / Incidence of Ventricular Tachycardia (%): monitored 5 minutes after reperfusion; for Mortality Rate (%): then reperfusion. The series is classed as in vivo.

The next series has as its system guinea pigs. As to conditions: guinea pig, in vivo.
Series [4] has as its system model of myocardial ischemia reperfusion injury. Kind of series: Model of myocardial ischemia-reperfusion injury in dogs. The series is classed as in vivo. The conditions noted are these: 3 mg/kg into the femoral vein 10 minutes before 20 minutes coronary occlusion, then reperfusion. The procedure: In order to confirm the efficacy of compounds of the present invention on myocardial infarction and arrhythmia caused by myocardial infarction, a pharmacological study was conducted using a model of myocardial ischemia reperfusion injury in dogs for the compounds used in Example 1.
Dogs having body weights of approximately 10 kg were anesthetized with pentobarbital (trade name) (30 mg/ml/kg) followed by shaving the surgical site after starting artificial respiration. The femoral vein and femoral artery were separated followed by cannulation. The femoral vein was used as the administration route for the test substances, while the femoral artery was used to measure blood pressure.
Next, after opening the left chest, making an incision in the pericardium and exposing the left ventricle, the left coronary artery was separated. A silk suture was passed through the coronary artery to occlude, followed by the attachment of an electromagnetic flow meter probe for measuring blood flow.
In addition, a pair of ultrasound crystal probes was fixed in position to measure changes in ventricular wall length as a indicator of myocardial contractile force, and indwelling needle was installed for measuring left intraventricular pressure. Compounds of the present invention were administered into the femoral vein at 3 mg/kg (15% physiological saline solution) followed 10 minutes later by occluding the coronary artery for 20 minutes, and subsequently reperfusing the coronary artery. Myocardial contraction following ischemia-reperfusion was compared for each group based on a value of 100 for myocardial contraction prior to ischemic reperfusion. In addition, comparisons were also made with a solvent control group administered only physiological saline.

For the compound `COc1ccc(C(=O)[O-])cc1OCC[N+](C)(C)C` [Compound 39], in series [1], the “Improvement of neurological symptoms* (total score)” value is listed as 6.80, the “Improvement of motor function (time stayed on rotor rod: seconds)” value (shortened to “Improvement of motor function”) was determined as 42.4 s and the “Cerebral infarction reduction rate (%)” value is recorded as 37.8%. In series [2], the “Ouabain (μg/kg) administered until Cardiac arrest” value is 229 µg/kg and the “Ouabain (μg/kg) administered until appearance of Arrhythmia” value (“Ouabain … of Arrhythmia” below) was found to be 165 µg/kg. Also, in series [3], the “Incidence of Ventricular Fibrillation (%)” value was 12.5%, the “Incidence of Ventricular Tachycardia (%)” value came to 62.5% and the “Mortality Rate (%)” value was determined as 12.5%. Besides, in the series on guinea pigs (3 mg/kg), the “Occurrence of Arrhythmia” value was “No” and the “Occurrence of cardiac arrest” value is listed as “No”. In the series with guinea pigs (10 mg/kg), the “Occurrence of Arrhythmia” value was “No” and the “Occurrence of cardiac arrest” value is “No”. Besides, in series [4], the “Myocardial Contraction (%) (Based on a value of 100% for prior to ischemia-reperfusion)” value (“Myocardial Contraction (%)” below) worked out at 74%.
On to `C[N+](C)(C)CC(O)Oc1ccc(O)c(C(=O)[O-])c1` (stereo not drawn) [Compound 56], for which, in series [1], the “Improvement of neurological symptoms* (total score)” value was 6.55, the “Improvement of motor function” value amounted to 45.4 s and the “Cerebral infarction reduction rate (%)” value is listed as 40.7%. Besides, in series [2], the “Ouabain (μg/kg) administered until Cardiac arrest” value amounted to 244 µg/kg and the “Ouabain … of Arrhythmia” value turned out to be 172 µg/kg. Besides, in series [3], the “Incidence of Ventricular Fibrillation (%)” value was 12.5%, the “Incidence of Ventricular Tachycardia (%)” value came to 62.5% and the “Mortality Rate (%)” value is recorded as 25.0%. In the series with guinea pigs (3 mg/kg), the “Occurrence of Arrhythmia” value is recorded as “No” and the “Occurrence of cardiac arrest” value is on record as “No”. In addition, in the series on guinea pigs (10 mg/kg), the “Occurrence of Arrhythmia” value is “No” and the “Occurrence of cardiac arrest” value is recorded as “No”. The “Myocardial Contraction (%)” value in series [4] is given as 71%.
As for `C[N+](C)(C)CCOc1ccc(S(=O)(=O)[O-])cc1` [Compound 60], in series [1], the “Improvement of neurological symptoms* (total score)” value is given as 6.65, the “Improvement of motor function” value amounted to 44.2 s and the “Cerebral infarction reduction rate (%)” value turned out to be 39.0%. In series [2], the “Ouabain (μg/kg) administered until Cardiac arrest” value was 243 µg/kg and the “Ouabain … of Arrhythmia” value amounted to 170 µg/kg. Moreover, in series [3], the “Incidence of Ventricular Fibrillation (%)” value was determined as 25.0%, the “Incidence of Ventricular Tachycardia (%)” value was 62.5% and the “Mortality Rate (%)” value was determined as 0%. In addition, in the series with guinea pigs (3 mg/kg), the “Occurrence of Arrhythmia” value is on record as “No” and the “Occurrence of cardiac arrest” value is “No”. In the series on guinea pigs (10 mg/kg), the “Occurrence of Arrhythmia” value was “No” and the “Occurrence of cardiac arrest” value is given as “No”. For the same compound, the “Myocardial Contraction (%)” value in series [4] came out at 88%.
For `C[N+](C)(C)CCOc1ccc(O)c(S(=O)(=O)[O-])c1` [Compound 66], in series [1], the “Improvement of neurological symptoms* (total score)” value is listed as 6.35, the “Improvement of motor function” value was determined as 49.6 s and the “Cerebral infarction reduction rate (%)” value was found to be 47.9%. In series [2], the “Ouabain (μg/kg) administered until Cardiac arrest” value turned out to be 237 µg/kg and the “Ouabain … of Arrhythmia” value was 168 µg/kg. Moreover, in series [3], the “Incidence of Ventricular Fibrillation (%)” value is listed as 12.5%, the “Incidence of Ventricular Tachycardia (%)” value was 62.5% and the “Mortality Rate (%)” value is 12.5%. Moreover, in the series on guinea pigs (3 mg/kg), the “Occurrence of Arrhythmia” value is “No” and the “Occurrence of cardiac arrest” value is reported as “No”. Further, in the series with guinea pigs (10 mg/kg), the “Occurrence of Arrhythmia” value is listed as “No” and the “Occurrence of cardiac arrest” value is “No”. For the same compound, in series [4], the “Myocardial Contraction (%)” value turned out to be 80%.
Regarding `CC[N+](CC)(CC)CCOc1ccc(S(=O)(=O)[O-])c(O)c1` [Compound 71], in series [1], the “Improvement of neurological symptoms* (total score)” value is given as 6.30, the “Improvement of motor function” value is 48.8 s and the “Cerebral infarction reduction rate (%)” value turned out to be 46.3%. In series [2], the “Ouabain (μg/kg) administered until Cardiac arrest” value was 239 µg/kg and the “Ouabain … of Arrhythmia” value was found to be 171 µg/kg. In series [3], the “Incidence of Ventricular Fibrillation (%)” value is given as 12.5%, the “Incidence of Ventricular Tachycardia (%)” value was 62.5% and the “Mortality Rate (%)” value is listed as 0%. In the series with guinea pigs (3 mg/kg), the “Occurrence of Arrhythmia” value is “No” and the “Occurrence of cardiac arrest” value was “No”. Moreover, in the series with guinea pigs (10 mg/kg), the “Occurrence of Arrhythmia” value is recorded as “No” and the “Occurrence of cardiac arrest” value was “No”. Also, the “Myocardial Contraction (%)” value in series [4] was found to be 72%.
As for `C[N+](C)(C)CCCOc1cc(S(=O)(=O)[O-])ccc1O` [Compound 77], in series [1], the “Improvement of neurological symptoms* (total score)” value is on record as 6.40, the “Improvement of motor function” value worked out at 49.3 s and the “Cerebral infarction reduction rate (%)” value was 47.3%. In series [2], the “Ouabain (μg/kg) administered until Cardiac arrest” value came out at 227 µg/kg and the “Ouabain … of Arrhythmia” value stood at 167 µg/kg. For the same compound, in series [3], the “Incidence of Ventricular Fibrillation (%)” value is 12.5%, the “Incidence of Ventricular Tachycardia (%)” value was 75.0% and the “Mortality Rate (%)” value came out at 12.5%. Besides, in the series with guinea pigs (3 mg/kg), the “Occurrence of Arrhythmia” value is “No” and the “Occurrence of cardiac arrest” value was “No”. Moreover, in the series with guinea pigs (10 mg/kg), the “Occurrence of Arrhythmia” value is recorded as “No” and the “Occurrence of cardiac arrest” value is listed as “No”. Besides, the “Myocardial Contraction (%)” value in series [4] is reported as 75%.
